From patent publication US20160052898A1, “NOVEL COMPOUNDS” (BAYER PHARMA AKTIENGESELLSCHAFT, priority 2013, published 2016)
Where two headings read alike, the source gives them in different places.

Experiments:
[1] = tested on: constitutive active colorectal cancer cell (CRC) Wnt pathway; assay: HCT116 Super TopFlash cellular reporter assay (constitutive active Wnt pathway); type: cell-based; conditions: HCT116 TOP reporter cells, luciferase expression, 36 hours incubation, 50 μM to 15 nM
Protocol: In order to discover and characterize small molecules which inhibit the constitutive active colorectal cancer cell (CRC) Wnt pathway, a cellular reporter assay was employed. The corresponding assay cell was generated by transfection of the colorectal cancer cell line HCT116 (ATCC, #CCL-247) with the Super TopFlash vector (Morin, Science 275, 1997, 1787-1790; Molenaar et al., Cell 86 (3), 1996, 391-399). The HCT116 cell line is cultivated at 37° C. and 5% CO2 in DMEM/F-12 (Life Technologies, #11320-074), supplemented with 2 mM glutamine, 20 mM HEPES, 1.4 mM pyruvate, 0.15% Na-bicarbonate and 10% foetal bovine serum (GIBCO, #10270), this cancer cell line is pathophysiological relevant since it carries a deletion of position S45 in the β-catenin gene, leading to constitutive active Wnt signaling. Stable transfectants were generated by cotransfection with pcDNA3 and selection of stable transfected cells with 1 mg/ml G418.
(§1) In a parallel approach, HCT116 cells were cotransfected with the FOP control vector and pcDNA3. The FOP vector is identical to the TOP construct, but it contains instead of functional TCF elements a randomized, non-functional sequence. For this transfection a stable transfected cell line was generated as well.
(§2) In preparation of the assay, the two cell lines were plated 24 hrs before at 10000 cells per well of a 384 micro titre plate (MTP) in 30 μL growth medium. Selective inhibitory activity for small molecules on the mutated Wnt pathway was determined after parallel incubation of both (TOP and FOP) HCT116 reporter cell lines with a compound dilution series from 50 μM to 15 nM in steps of 3.16-fold dilutions in CAFTY buffer (130 mM NaCl, 5 mM KCl, 20 mM HEPES, 1 mM MgCl2, 5 mM NaHCO3, pH 7.4) containing 2 mM Ca^2+ and 0.01% BSA. The compounds were thereby serially prediluted in 100% DMSO and thereafter in addition 50 fold into the CAFTY compound dilution buffer (described above). From this dilution 10 μL were added to the cells in 30 μL growth medium and incubated for 36 hours at 37° C. and 5% CO2. Thereafter luciferase assay buffer (1:1 mixture of luciferase substrate buffer (20 mM Tricine, 2.67 mM MgSO4, 0.1 mM EDTA, 4 mM DTT, 270 μM Coenzyme A, 470 μM Luciferin, 530 μM ATP, ph adjusted to pH 7.8 with a sufficient volume of 5M NaOH) and Triton buffer (30 mL Triton X-100, 115 mL glycerol, 308 mg Dithiothreitol, 4.45 g Na2HPO4.2 H2O, 3.03 g Tris.HCL, ad 1 l H20, pH 7.8) was added as equal volume to the compound solution on the cells to determine luciferase expression as a measure of Wnt signaling activity in a luminometer.

[2] = tested on: HCT116 FOP control reporter cell line; assay: HCT116 FOP control vector reporter assay (non-functional TCF elements); type: cell-based; conditions: HCT116 FOP control reporter cells, luciferase expression, 36 hours incubation, 50 μM to 15 nM, read-out: HCT116 FOPFlash IC50
Protocol: as §1, §2

Row | IC50 ([1]; Homo sapiens, HCT-116, 36 h) | IC50 ([2]; Homo sapiens, HCT-116, 36 h) | IC50 [1] | IC50 [2] | SMILES
1 | 174 nM | ≥ 50000 nM |  |  | CCC(C(=O)Nc1cc(C(=O)Nc2ccc(-c3ccccc3)cc2)ccc1OC)N1CCOCC1 (single isomer, unassigned) [Example 131, N-(biphenyl-4-yl)-4-methoxy-3-{[(2R*)-2-(morpholin-4-yl)butanoyl)amino} benzamide]
2 |  |  | 310 nM | ≥ 50000 nM | CCC(C(=O)Nc1cc(C(=O)Nc2ccc(-c3ccccc3)cc2)ccc1OC)N1CCOCC1 (single isomer, unassigned) [Example 132, N-(biphenyl-4-yl)-4-methoxy-3-{[(2S*)-2-(morpholin-4-yl)butanoyl]amino} benzamide]
3 | 9.98 nM | 27000 nM |  |  | COCc1ccc(C(=O)Nc2ccc(-c3ccccc3)cc2)cc1NC(=O)C(C)N1CC2CCC(C1)O2 (single isomer, unassigned) [Example 146, N-(biphenyl-4-yl)-4-(methoxymethyl)-3-{[(2R*)-2-(8-oxa-3-azabicyclo[3.2.1]oct-3-yl)propanoyl)amino} benzamide]
4 | 103 nM | 10400 nM |  |  | COCCOCc1ccc(C(=O)Nc2ccc(-c3ccccc3)cc2)cc1NC(=O)C(C)N1CCOCC1 (single isomer, unassigned) [Example 162, N-(biphenyl-4-yl)-4-[(2-methoxyethoxy)methyl]-3-{[(2R*)-2-(morpholin-4-yl)propanoyl)amino} benzamide]
5 |  |  | 214 nM | 7500 nM | COCc1ccc(C(=O)Nc2ccc(-c3ccccc3)cc2)cc1NC(=O)C(C)N1CCOCC1 (single isomer, unassigned) [Example 173, N-(biphenyl-4-yl)-4-(methoxymethyl)-3-{[(2S*)-2-(morpholin-4-yl)propanoyl]amino} benzamide]
6 | 507 nM | ≥ 50000 nM |  |  | COc1cc(Cl)c(C(=O)Nc2ccc(-c3ccccc3)cc2)cc1NC(=O)C(C)N1CCOCC1 (stereo not drawn) [Example 5, N-(biphenyl-4-yl)-2-chloro-4-methoxy-5-{[2-(morpholin-4-yl)propanoyl]amino}benzamide]
7 | 334 nM | 16500 nM |  |  | CN(C)C(=O)c1ccc(C(=O)Nc2ccc(-c3ccccc3)cc2)cc1NC(=O)CN1CCOCC1 [Example 21, N^4-(biphenyl-4-yl)-N^1,N^1-dimethyl-2-[(morpholin-4-ylacetyl)amino]terephthalamide]
8 | 1060 nM | ≥ 50000 nM |  |  | COc1ccc(NC(=O)c2ccc(-c3ccccc3)cc2)cc1NC(=O)CN1CCO[C@@H](CO)C1 [Example 34, N-[3-({[(2R)-2-(hydroxymethyl)morpholin-4-yl]acetyl}amino)-4-methoxyphenyl]biphenyl-4-carboxamide]

More lines, now with the values behind:

Row | SMILES | IC50 ([1]; Homo sapiens, HCT-116, 36 h) | IC50 ([2]; Homo sapiens, HCT-116, 36 h) | IC50 [1] | IC50 [2]
9 | COCCCOCc1ccc(C(=O)Nc2ccc(-c3ccccc3)cc2)cc1NC(=O)C(C)N1CCOCC1 (single isomer, unassigned) [Example 166, N-(biphenyl-4-yl)-4-[(3-methoxypropoxy)methyl]-3-{[(2R*)-2-(morpholin-4-yl)propanoyl]amino} benzamide] |  | 5400 nM | 135 nM | 
10 | COCc1ccc(C(=O)Nc2ccc(-c3ccccc3)cc2)cc1NC(=O)C(C)N1CC2CCC(C1)O2 (single isomer, unassigned) [Example 167, N-(biphenyl-4-yl)-4-(methoxymethyl)-3-{[(2S*)-2-(8-oxa-3-azabicyclo[3.2.1]oct-3-yl)propanoyl]amino} benzamide] | 139 nM | 41200 nM |  | 
11 | COCc1ccc(C(=O)Nc2ccc(-c3ccccc3)cc2)cc1NC(=O)C(C)N1CCOCC1 (single isomer, unassigned) [Example 169, N-(biphenyl-4-yl)-4-(methoxymethyl)-3-{[(2R*)-2-(morpholin-4-yl)propanoyl]amino} benzamide] | 154 nM | 10000 nM |  | 
12 | CC(C(=O)Nc1cc(NC(=O)c2ccc(-c3ccccc3)cc2)ccc1C(F)(F)F)N1CCOCC1 (single isomer, unassigned) [Example 172, N-[3-{[(2R*)-2-(morpholin-4-yl)propanoyl]amino}-4-(trifluoromethyl)phenyl] biphenyl-4-carboxamide] | 211 nM | ≥ 50000 nM |  | 
13 | COCCOCc1ccc(C(=O)Nc2ccc(-c3ccccc3)cc2)cc1NC(=O)C(C)N1CCOCC1 (single isomer, unassigned) [Example 177, N-(biphenyl-4-yl)-4-[(2-methoxyethoxy)methyl)-3-{[(2S*)-2-(morpholin-4-yl)propanoyl)amino} benzamide] | 265 nM | 15000 nM |  | 
14 | COCCCOCc1ccc(C(=O)Nc2ccc(-c3ccccc3)cc2)cc1NC(=O)C(C)N1CCOCC1 (single isomer, unassigned) [Example 179, N-(biphenyl-4-yl)-4-[(3-methoxypropoxy)methyl]-3-{[(2S*)-2-(morpholin-4-yl)propanoyl]amino} benzamide] |  |  | 300 nM | 7600 nM
15 | CC(C(=O)Nc1cc(NC(=O)c2ccc(-c3ccccc3)cc2)ccc1C(F)(F)F)N1CCOCC1 (single isomer, unassigned) [Example 180, N-(3-{[(2S*)-2-(morpholin-4-yl)propanoyl]amino}-4-(trifluoromethyl)phenyl] biphenyl-4-carboxamide] |  |  | 301 nM | ≥ 50000 nM
16 | CC(C(=O)Nc1cc(NC(=O)c2ccc(-c3ccccc3)cc2)ccc1C(F)(F)F)N1CC2CCC(C1)O2 (single isomer, unassigned) [Example 182, N-[3-{[(2R*)-2-(8-oxa-3-azabicyclo[3.2.1]oct-3-yl)propanoyl]amino}-4-(trifluoromethyl)phenyl] biphenyl-4-carboxamide] |  | ≥ 50000 nM | 311 nM | 
17 | O=C(Cn1cccn1)Nc1cc(C(=O)Nc2ccc(-c3ccccc3)cc2)ccc1C(F)(F)F [Example 3, N-(biphenyl-4-yl)-3-[(1H-pyrazol-1-ylacetyl)amino]-4-(trifluoromethyl)benzamide] | 430 nM | ≥ 50000 nM |  | 
18 | COc1cc(Cl)c(C(=O)Nc2ccc(-c3ccccc3)cc2)cc1NC(=O)CN1CCOCC1 [Example 6, N-(biphenyl-4-yl)-2-chloro-4-methoxy-5-[(morpholin-4-ylacetyl)amino]benzamide] | 3920 nM | ≥ 50000 nM |  | 
19 | O=C(CN1CC2CCC(C1)O2)Nc1cc(C(=O)Nc2ccc(-c3ccccc3)cc2)ccc1C(F)(F)F [Example 10, N-(biphenyl-4-yl)-3-[(8-oxa-3-azabicyclo[3.2.1]oct-3-ylacetyl)amino]-4-(trifluoromethyl)benzamide] | 170 nM | ≥ 50000 nM |  | 
20 | O=C(CN1C[C@@H]2C[C@H]1CO2)Nc1cc(C(=O)Nc2ccc(-c3ccccc3)cc2)ccc1C(F)(F)F [Example 11, N-(biphenyl-4-yl)-3-{[(1S,4S)-2-oxa-5-azabicyclo[2.2.1]hept-5-ylacetyl]amino}-4-(trifluoromethyl)benzamide] | 533 nM | ≥ 50000 nM |  | 
21 | O=C(CN1CCOCC1)Nc1cc(C(=O)Nc2ccc(-c3ccccc3)cc2)ccc1-c1cccs1 [Example 19, N-(biphenyl-4-yl)-3-[(morpholin-4-ylacetyl)amino]-4-(2-thienyl)benzamide] | 136 nM | ≥ 50000 nM |  | 
22 | O=C(CN1CCOCC1)Nc1cc(C(=O)Nc2ccc(-c3ccccc3)cc2)ccc1OCc1ccccc1 [Example 24, 4-(benzyloxy)-N-(biphenyl-4-yl)-3-[(morpholin-4-ylacetyl)amino]benzamide] | 360 nM | ≥ 50000 nM |  | 
23 | O=C(CN1CCOCC1)Nc1cc(NC(=O)c2ccc(-c3ccccc3)cc2)ccc1F [Example 29, N-{4-fluoro-3-[(morpholin-4-ylacetyl)amino]phenyl}biphenyl-4-carboxamide] | 2150 nM | ≥ 50000 nM |  | 
24 | C[C@H](C(=O)Nc1cc(NC(=O)c2ccc(-c3ccccc3)cc2)ccc1F)N1CCOCC1 [Example 31, N-(4-fluoro-3-{[(2R)-2-(morpholin-4-yl)propanoyl]amino}phenyl)biphenyl-4-carboxamide] | 3830 nM | ≥ 50000 nM |  | 
